# Measurements taken from the kinase profiling compilation of Christmann-Franck et al. (2016).
# Target: FGFR2 (human) (UniProt P21802)
# Experiment: radiometric filter-binding kinase assay, Kinase HotSpot
# Settings: compound 0.5 µM; ATP 10 µM
row,SMILES,residual activity
1,CSc1nc(-c2ccc(F)cc2)c(-c2ccnc(NC(C)c3ccccc3)c2)[nH]1 (configuration not stated),95.2%
2,O=C(NC(NC(=S)Nc1ccc(F)c([N+](=O)[O-])c1)C(Cl)(Cl)Cl)C(c1ccccc1)c1ccccc1 (configuration not stated),97.7%
3,Cc1cc2ncc(-c3ccccc3)nc2cc1C,108%
4,Nc1n[nH]c2nnc(-c3c(-c4ccccc4)nn4ccccc34)cc12,102%

# Target: RPS6KA6 KD1 KD2 (human) (UniProt Q9UK32)
# Experiment: as above
# Settings: compound 0.5 µM; ATP 10 µM
# RPS6KA6 KD1 KD2 (human), sequence (Q9UK32 whole entry, looked up): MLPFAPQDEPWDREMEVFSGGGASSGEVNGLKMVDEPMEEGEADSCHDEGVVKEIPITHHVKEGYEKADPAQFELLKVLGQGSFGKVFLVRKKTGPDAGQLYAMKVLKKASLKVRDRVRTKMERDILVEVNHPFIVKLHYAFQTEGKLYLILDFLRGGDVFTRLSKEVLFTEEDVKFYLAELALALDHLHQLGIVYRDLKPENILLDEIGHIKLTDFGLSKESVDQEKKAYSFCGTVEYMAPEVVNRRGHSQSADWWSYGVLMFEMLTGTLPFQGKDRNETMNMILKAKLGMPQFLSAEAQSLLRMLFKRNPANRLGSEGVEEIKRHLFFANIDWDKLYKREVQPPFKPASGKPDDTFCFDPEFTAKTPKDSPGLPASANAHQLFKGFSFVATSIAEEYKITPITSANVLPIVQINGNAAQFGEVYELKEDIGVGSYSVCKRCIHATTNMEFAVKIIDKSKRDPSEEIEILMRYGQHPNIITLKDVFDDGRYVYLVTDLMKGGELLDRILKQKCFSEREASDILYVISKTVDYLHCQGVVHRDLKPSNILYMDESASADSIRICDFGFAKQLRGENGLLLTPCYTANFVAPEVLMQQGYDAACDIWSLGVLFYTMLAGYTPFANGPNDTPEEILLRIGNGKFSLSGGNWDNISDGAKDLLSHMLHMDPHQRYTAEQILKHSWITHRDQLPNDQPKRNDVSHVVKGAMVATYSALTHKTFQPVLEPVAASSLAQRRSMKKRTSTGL
row,SMILES,residual activity
1,CSc1nc(-c2ccc(F)cc2)c(-c2ccnc(NC(C)c3ccccc3)c2)[nH]1 (configuration not stated),93.1%
2,O=C(NC(NC(=S)Nc1ccc(F)c([N+](=O)[O-])c1)C(Cl)(Cl)Cl)C(c1ccccc1)c1ccccc1 (configuration not stated),94.7%
3,Cc1cc2ncc(-c3ccccc3)nc2cc1C,98.2%
4,Nc1n[nH]c2nnc(-c3c(-c4ccccc4)nn4ccccc34)cc12,95.5%

# Target: MAP3K11 (human) (UniProt Q16584)
# Experiment: as above
# Settings: compound 0.5 µM; ATP 10 µM
# MAP3K11 (human), sequence (Q16584 whole entry, looked up): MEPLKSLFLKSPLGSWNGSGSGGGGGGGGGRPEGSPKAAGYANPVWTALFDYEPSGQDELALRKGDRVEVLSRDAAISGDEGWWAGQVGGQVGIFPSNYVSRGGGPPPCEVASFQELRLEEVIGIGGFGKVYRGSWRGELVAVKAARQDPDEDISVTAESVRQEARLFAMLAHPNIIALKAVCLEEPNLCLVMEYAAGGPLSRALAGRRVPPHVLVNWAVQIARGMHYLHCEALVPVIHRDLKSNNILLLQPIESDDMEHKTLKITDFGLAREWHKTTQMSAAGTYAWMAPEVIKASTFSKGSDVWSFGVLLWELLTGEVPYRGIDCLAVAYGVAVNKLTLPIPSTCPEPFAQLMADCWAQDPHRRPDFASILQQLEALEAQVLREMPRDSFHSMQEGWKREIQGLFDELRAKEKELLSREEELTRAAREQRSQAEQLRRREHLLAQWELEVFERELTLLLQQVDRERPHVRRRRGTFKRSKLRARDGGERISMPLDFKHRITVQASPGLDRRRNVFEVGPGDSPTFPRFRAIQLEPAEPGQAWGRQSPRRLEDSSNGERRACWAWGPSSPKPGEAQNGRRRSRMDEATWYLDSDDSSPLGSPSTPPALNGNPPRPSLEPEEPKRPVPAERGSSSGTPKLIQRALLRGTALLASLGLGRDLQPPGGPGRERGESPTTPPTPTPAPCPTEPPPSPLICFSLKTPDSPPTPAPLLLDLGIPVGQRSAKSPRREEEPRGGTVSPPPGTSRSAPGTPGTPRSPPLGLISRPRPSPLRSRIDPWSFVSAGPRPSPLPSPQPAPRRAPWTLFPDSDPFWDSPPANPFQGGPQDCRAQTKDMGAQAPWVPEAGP
row,SMILES,residual activity
1,CSc1nc(-c2ccc(F)cc2)c(-c2ccnc(NC(C)c3ccccc3)c2)[nH]1 (configuration not stated),101%
2,O=C(NC(NC(=S)Nc1ccc(F)c([N+](=O)[O-])c1)C(Cl)(Cl)Cl)C(c1ccccc1)c1ccccc1 (configuration not stated),102%
3,Cc1cc2ncc(-c3ccccc3)nc2cc1C,97.3%
4,Nc1n[nH]c2nnc(-c3c(-c4ccccc4)nn4ccccc34)cc12,94.3%

# Target: ERBB4 (human) (UniProt Q15303)
# Experiment: as above
# Settings: compound 0.5 µM; ATP 10 µM
# ERBB4 (human), sequence (Q15303 whole entry, looked up): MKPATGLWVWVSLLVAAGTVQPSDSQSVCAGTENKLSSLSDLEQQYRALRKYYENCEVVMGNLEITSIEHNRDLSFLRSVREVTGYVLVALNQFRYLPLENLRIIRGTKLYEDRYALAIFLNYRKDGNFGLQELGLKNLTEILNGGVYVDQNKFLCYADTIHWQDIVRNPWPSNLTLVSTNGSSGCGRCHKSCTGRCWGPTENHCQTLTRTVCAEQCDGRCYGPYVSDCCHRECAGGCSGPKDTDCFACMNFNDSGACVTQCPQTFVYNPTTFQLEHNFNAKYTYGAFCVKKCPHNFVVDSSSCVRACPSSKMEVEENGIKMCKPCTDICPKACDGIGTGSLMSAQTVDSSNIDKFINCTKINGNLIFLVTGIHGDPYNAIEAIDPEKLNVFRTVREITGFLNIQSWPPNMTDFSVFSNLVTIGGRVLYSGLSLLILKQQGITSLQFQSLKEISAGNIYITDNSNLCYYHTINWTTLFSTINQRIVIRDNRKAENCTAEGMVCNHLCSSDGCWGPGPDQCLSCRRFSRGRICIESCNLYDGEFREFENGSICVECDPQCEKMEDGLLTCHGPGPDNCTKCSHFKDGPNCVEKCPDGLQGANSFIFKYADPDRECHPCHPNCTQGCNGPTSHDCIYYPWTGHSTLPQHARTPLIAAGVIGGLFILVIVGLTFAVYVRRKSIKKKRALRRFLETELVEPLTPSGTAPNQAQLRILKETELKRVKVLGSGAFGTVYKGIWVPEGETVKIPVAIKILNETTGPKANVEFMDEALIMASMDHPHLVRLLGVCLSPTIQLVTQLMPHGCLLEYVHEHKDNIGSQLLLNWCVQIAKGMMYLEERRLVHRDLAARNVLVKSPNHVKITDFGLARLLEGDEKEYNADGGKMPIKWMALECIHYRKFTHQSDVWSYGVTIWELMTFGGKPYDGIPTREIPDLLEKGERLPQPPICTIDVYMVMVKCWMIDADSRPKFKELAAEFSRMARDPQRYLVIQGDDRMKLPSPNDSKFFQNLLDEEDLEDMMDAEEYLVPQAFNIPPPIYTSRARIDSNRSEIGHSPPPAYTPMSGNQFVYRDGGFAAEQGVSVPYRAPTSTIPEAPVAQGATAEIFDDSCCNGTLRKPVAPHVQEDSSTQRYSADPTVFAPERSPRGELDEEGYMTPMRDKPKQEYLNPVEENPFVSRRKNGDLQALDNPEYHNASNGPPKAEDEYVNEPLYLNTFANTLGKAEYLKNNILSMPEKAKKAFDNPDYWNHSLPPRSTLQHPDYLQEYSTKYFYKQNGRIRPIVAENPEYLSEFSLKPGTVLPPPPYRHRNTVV
row,SMILES,residual activity
1,CSc1nc(-c2ccc(F)cc2)c(-c2ccnc(NC(C)c3ccccc3)c2)[nH]1 (configuration not stated),98.4%
2,O=C(NC(NC(=S)Nc1ccc(F)c([N+](=O)[O-])c1)C(Cl)(Cl)Cl)C(c1ccccc1)c1ccccc1 (configuration not stated),103%
3,Cc1cc2ncc(-c3ccccc3)nc2cc1C,96.4%
4,Nc1n[nH]c2nnc(-c3c(-c4ccccc4)nn4ccccc34)cc12,91.4%

# Target: NTRK1 (human) (UniProt P04629)
# Experiment: as above
# Settings: compound 0.5 µM; ATP 10 µM
# NTRK1 (human), sequence (P04629 whole entry, looked up): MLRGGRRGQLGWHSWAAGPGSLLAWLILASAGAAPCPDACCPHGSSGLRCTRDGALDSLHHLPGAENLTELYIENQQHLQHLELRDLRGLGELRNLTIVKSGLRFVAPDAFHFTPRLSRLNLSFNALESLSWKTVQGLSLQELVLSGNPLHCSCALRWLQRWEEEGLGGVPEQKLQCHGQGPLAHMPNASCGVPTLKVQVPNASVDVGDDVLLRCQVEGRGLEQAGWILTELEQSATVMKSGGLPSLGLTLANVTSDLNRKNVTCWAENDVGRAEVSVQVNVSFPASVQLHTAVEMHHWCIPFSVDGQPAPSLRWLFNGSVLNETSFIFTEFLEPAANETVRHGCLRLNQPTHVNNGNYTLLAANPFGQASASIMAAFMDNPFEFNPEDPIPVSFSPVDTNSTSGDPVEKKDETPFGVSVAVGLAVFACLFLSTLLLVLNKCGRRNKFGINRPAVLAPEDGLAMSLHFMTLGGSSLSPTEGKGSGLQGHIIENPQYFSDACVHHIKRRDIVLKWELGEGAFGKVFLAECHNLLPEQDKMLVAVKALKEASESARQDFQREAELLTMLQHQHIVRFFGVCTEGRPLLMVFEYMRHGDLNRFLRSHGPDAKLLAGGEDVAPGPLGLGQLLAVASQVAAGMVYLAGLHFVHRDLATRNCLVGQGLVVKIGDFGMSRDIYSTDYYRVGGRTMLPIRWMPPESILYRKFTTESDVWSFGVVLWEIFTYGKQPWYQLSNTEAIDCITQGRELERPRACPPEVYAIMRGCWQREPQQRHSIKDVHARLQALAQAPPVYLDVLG
row,SMILES,residual activity
1,CSc1nc(-c2ccc(F)cc2)c(-c2ccnc(NC(C)c3ccccc3)c2)[nH]1 (configuration not stated),91.2%
2,O=C(NC(NC(=S)Nc1ccc(F)c([N+](=O)[O-])c1)C(Cl)(Cl)Cl)C(c1ccccc1)c1ccccc1 (configuration not stated),107%
3,Cc1cc2ncc(-c3ccccc3)nc2cc1C,105%
4,Nc1n[nH]c2nnc(-c3c(-c4ccccc4)nn4ccccc34)cc12,101%

# Target: CSF1R (human) (UniProt P07333)
# Experiment: as above
# Settings: compound 0.5 µM; ATP 10 µM
row,SMILES,residual activity
1,CSc1nc(-c2ccc(F)cc2)c(-c2ccnc(NC(C)c3ccccc3)c2)[nH]1 (configuration not stated),104%
2,O=C(NC(NC(=S)Nc1ccc(F)c([N+](=O)[O-])c1)C(Cl)(Cl)Cl)C(c1ccccc1)c1ccccc1 (configuration not stated),96.2%
3,Cc1cc2ncc(-c3ccccc3)nc2cc1C,82.1%
4,Nc1n[nH]c2nnc(-c3c(-c4ccccc4)nn4ccccc34)cc12,96.8%

# Target: RIPK2 (human) (UniProt O43353)
# Experiment: as above
# Settings: compound 0.5 µM; ATP 10 µM
row,SMILES,residual activity
1,CSc1nc(-c2ccc(F)cc2)c(-c2ccnc(NC(C)c3ccccc3)c2)[nH]1 (configuration not stated),85.1%
2,O=C(NC(NC(=S)Nc1ccc(F)c([N+](=O)[O-])c1)C(Cl)(Cl)Cl)C(c1ccccc1)c1ccccc1 (configuration not stated),97.4%
3,Cc1cc2ncc(-c3ccccc3)nc2cc1C,98.3%
4,Nc1n[nH]c2nnc(-c3c(-c4ccccc4)nn4ccccc34)cc12,87%

# Target: DYRK4 (human) (UniProt Q9NR20)
# Experiment: as above
# Settings: compound 0.5 µM; ATP 10 µM
row,SMILES,residual activity
1,CSc1nc(-c2ccc(F)cc2)c(-c2ccnc(NC(C)c3ccccc3)c2)[nH]1 (configuration not stated),91.4%
2,O=C(NC(NC(=S)Nc1ccc(F)c([N+](=O)[O-])c1)C(Cl)(Cl)Cl)C(c1ccccc1)c1ccccc1 (configuration not stated),104%
3,Cc1cc2ncc(-c3ccccc3)nc2cc1C,90.3%
4,Nc1n[nH]c2nnc(-c3c(-c4ccccc4)nn4ccccc34)cc12,95.3%

# Target: MAP2K1 (human) (UniProt Q02750)
# Experiment: as above
# Settings: compound 0.5 µM; ATP 10 µM
# MAP2K1 (human), sequence (Q02750 whole entry, looked up): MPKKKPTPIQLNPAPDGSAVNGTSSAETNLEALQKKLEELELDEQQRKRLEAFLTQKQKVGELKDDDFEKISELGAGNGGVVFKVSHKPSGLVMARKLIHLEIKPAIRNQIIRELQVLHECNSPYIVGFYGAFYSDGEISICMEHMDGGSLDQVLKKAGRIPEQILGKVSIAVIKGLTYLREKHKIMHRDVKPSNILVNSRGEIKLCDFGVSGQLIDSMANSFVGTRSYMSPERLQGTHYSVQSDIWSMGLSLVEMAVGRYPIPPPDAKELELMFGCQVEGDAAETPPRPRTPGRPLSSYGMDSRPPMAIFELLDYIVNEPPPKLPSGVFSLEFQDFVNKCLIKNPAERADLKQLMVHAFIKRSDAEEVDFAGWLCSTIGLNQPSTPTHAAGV
row,SMILES,residual activity
1,CSc1nc(-c2ccc(F)cc2)c(-c2ccnc(NC(C)c3ccccc3)c2)[nH]1 (configuration not stated),93.9%
2,O=C(NC(NC(=S)Nc1ccc(F)c([N+](=O)[O-])c1)C(Cl)(Cl)Cl)C(c1ccccc1)c1ccccc1 (configuration not stated),95.1%
3,Cc1cc2ncc(-c3ccccc3)nc2cc1C,98%
4,Nc1n[nH]c2nnc(-c3c(-c4ccccc4)nn4ccccc34)cc12,94.3%

# Target: TGFBR2 (human) (UniProt P37173)
# Experiment: as above
# Settings: compound 0.5 µM; ATP 10 µM
# TGFBR2 (human), sequence (P37173 whole entry, looked up): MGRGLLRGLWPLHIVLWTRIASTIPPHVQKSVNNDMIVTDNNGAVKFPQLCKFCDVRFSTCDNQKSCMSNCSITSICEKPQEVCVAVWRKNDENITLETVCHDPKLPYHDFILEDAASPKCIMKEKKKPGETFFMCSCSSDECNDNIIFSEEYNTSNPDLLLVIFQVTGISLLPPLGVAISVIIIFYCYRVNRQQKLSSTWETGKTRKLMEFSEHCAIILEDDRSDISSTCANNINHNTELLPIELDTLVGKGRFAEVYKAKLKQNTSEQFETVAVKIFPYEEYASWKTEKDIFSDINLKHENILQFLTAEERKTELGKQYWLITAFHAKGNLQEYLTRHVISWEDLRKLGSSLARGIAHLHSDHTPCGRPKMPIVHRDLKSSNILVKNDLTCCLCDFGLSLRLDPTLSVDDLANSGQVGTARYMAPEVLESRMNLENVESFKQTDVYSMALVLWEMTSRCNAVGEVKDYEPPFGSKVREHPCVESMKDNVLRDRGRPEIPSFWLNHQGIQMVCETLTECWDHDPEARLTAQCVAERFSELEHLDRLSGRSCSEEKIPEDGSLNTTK
row,SMILES,residual activity
1,CSc1nc(-c2ccc(F)cc2)c(-c2ccnc(NC(C)c3ccccc3)c2)[nH]1 (configuration not stated),96.5%
2,O=C(NC(NC(=S)Nc1ccc(F)c([N+](=O)[O-])c1)C(Cl)(Cl)Cl)C(c1ccccc1)c1ccccc1 (configuration not stated),91.6%
3,Cc1cc2ncc(-c3ccccc3)nc2cc1C,130%
4,Nc1n[nH]c2nnc(-c3c(-c4ccccc4)nn4ccccc34)cc12,112%

# Target: MELK (human) (UniProt Q14680)
# Experiment: as above
# Settings: compound 0.5 µM; ATP 10 µM
row,SMILES,residual activity
1,CSc1nc(-c2ccc(F)cc2)c(-c2ccnc(NC(C)c3ccccc3)c2)[nH]1 (configuration not stated),94.2%
2,O=C(NC(NC(=S)Nc1ccc(F)c([N+](=O)[O-])c1)C(Cl)(Cl)Cl)C(c1ccccc1)c1ccccc1 (configuration not stated),102%
